Measured values from ChEMBL document CHEMBL1158897, “New alkaloids from Cephalotaxus fortunei” (J Nat Prod, 2003).
Converted amounts (≈) assume the structure as drawn.

Test system: KB
Experiment: Cytotoxicity against human KB cells after 72 hrs by neutral red staining
Assay type: functional, cell-based

Row | SMILES | IC50 [µg/mL]
1 | COC1=C[C@]23CCC[N@@+]2([O-])CCc2cc4c(cc2[C@@H]3[C@@H]1O)OCO4 | 14 (≈ 42.2 µM)
2 | COC1=C[C@]23CCC[N@@+]2([O-])C[C@H](O)c2cc4c(cc2[C@@H]3[C@@H]1O)OCO4 | 31 (≈ 89.2 µM)
3 | COC1=C[C@]23CCC[N@+]2([O-])CCc2cc4c(cc2[C@@H]3[C@@H]1O)OCO4 | 30 (≈ 90.5 µM)
4 | COC1=C2c3cc4c(cc3CCN3CCC[C@]23CC1O)OCO4 (some centres undefined) [ISOCEPHALOTAXINE] | 15 (≈ 47.6 µM)
